The target of assay [1] is T1, Tyrosinase (Homo sapiens, UniProt P14679).
T1 sequence (P14679 whole entry): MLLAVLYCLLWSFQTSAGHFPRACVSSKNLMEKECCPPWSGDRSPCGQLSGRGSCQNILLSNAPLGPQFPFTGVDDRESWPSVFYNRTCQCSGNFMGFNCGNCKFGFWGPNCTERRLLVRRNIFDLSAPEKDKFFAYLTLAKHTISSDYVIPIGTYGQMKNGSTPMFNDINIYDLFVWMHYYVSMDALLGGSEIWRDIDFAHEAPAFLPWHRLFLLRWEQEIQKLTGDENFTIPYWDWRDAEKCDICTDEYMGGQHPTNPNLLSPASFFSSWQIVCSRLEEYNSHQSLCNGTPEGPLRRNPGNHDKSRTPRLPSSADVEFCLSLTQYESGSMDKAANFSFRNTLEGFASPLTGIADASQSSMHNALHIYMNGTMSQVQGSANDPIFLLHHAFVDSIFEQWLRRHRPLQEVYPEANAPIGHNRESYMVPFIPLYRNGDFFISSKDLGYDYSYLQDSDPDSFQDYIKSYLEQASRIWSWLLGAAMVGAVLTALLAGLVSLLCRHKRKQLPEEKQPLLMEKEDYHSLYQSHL
Description: Inhibition of tyrosinase in human MNT-1 cells using L-DOPA as substrate preincubated for 10 mins followed by substrate addition measured after 180 mins by absorbance based spectramax microplate reader assay

Assay [2] has as its system MNT-1. The experiment in a line: cells. To be noted: Homo sapiens, MNT-1, 96 h.
Description: Inhibition of melanogenesis in human MNT-1 cells incubated for 4 days
Assay [3] concerns MNT-1. In words: cells. To be noted: Homo sapiens, MNT-1, 336 h.
Description: Inhibition of melanogenesis in human MNT-1 cells incubated for 14 days
In assay [4] the test system is MNT-1. The experiment in a line: cells. To be noted: Homo sapiens, MNT-1, 336 h. The source holds these as a separate data set.
Description: Cytotoxicity against human MNT-1 cells incubated for 14 days by resazurin assay
For assay [5], the system named is MNT-1. In words: cells. To be noted: Homo sapiens, MNT-1, 96 h. The source holds these as a separate data set.
Description: Cytotoxicity against human MNT-1 cells incubated for 4 days by resazurin assay
Another assay concerns the target Mushroom tyrosinase (Agaricus bisporus, UniProt O42713+Q00024+C7FF04+C7FF05). In words: Inhibition of mushroom tyrosinase using L-DOPA as substrate preincubated for 10 mins followed by substrate addition measured after 10 mins by absorbance based spectramax microplate reader assay. It is filed as protein assay.
In assay [6] the target is T1, Tyrosinase. In words: Inhibition of His-tagged human tyrosinase expressed in HEK293 cells using L-DOPA as substrate by microplate reader analysis.

Take `CC(C)C(=O)Nc1nc(-c2ccc(O)cc2O)cs1`: the IC50 against Tyrosinase [1] was found to be 0.17 µM; in the assay on MNT-1 [2] it was 10 µM; with MNT-1 [3], 0.28 µM. For the same compound, the CC50 in the assay with MNT-1 [4] was 36 µM; in the assay on MNT-1 [5], over 100 µM.
On to `O=C1/C(=C/c2ccc(O)cc2O)Cc2c(O)cccc21`, for which the half-maximal inhibitory concentration (IC50) against Mushroom tyrosinase was found to be 0.09 µM.
Still for that read-out and setting: under `CC(C)[C@@H](N)C(=O)Nc1cccc2c1C/C(=C\c1ccc(O)cc1O)C2=O` stands 0.46 µM; under `O=C1/C(=C/c2ccc(O)cc2O)Cc2c(Br)cccc21`, 0.086 µM.
`O=C1/C(=C/c2ccc(O)cc2O)Cc2c1cccc2[N+](=O)[O-]`: the IC50 on Tyrosinase [1] was over 100 µM; against Mushroom tyrosinase, 0.16 µM.
Take `CCCC(=O)Nc1cccc2c1C/C(=C\c1ccc(O)cc1O)C2=O`: the figures for the IC50 at Mushroom tyrosinase, with MNT-1 [2] and in the assay with MNT-1 [3] were 0.006 µM, 24 µM and 2 µM, respectively. Further, the results for the CC50 in the assay with MNT-1 [4] and in the assay on MNT-1 [5] were 77 µM and over 100 µM, respectively.
In turn, `O=C(Nc1cccc2c1C/C(=C\c1ccc(O)cc1O)C2=O)c1ccccc1` came in with a concentration for half-maximal inhibition (IC50) against Mushroom tyrosinase of 0.1 µM.
For `Nc1cccc2c1C/C(=C\c1ccc(O)cc1O)C2=O`, the figures for the IC50 on Mushroom tyrosinase, in the assay with MNT-1 [2] and in the assay with MNT-1 [3] were 0.027 µM, 3.8 µM and 0.53 µM, respectively. The CC50 in the assay on MNT-1 [4] was 66 µM; with MNT-1 [5] it was over 100 µM.
In the case of `C[C@H](N)C(=O)Nc1cccc2c1C/C(=C\c1ccc(O)cc1O)C2=O`, the IC50 on Mushroom tyrosinase was 0.6 µM; in the assay with MNT-1 [2], 19 µM; in the assay on MNT-1 [3], 4.6 µM. Further, the CC50 in the assay with MNT-1 [4] is 94 µM; in the assay with MNT-1 [5] it was over 100 µM.
As to `CNc1cccc2c1C/C(=C\c1ccc(O)cc1O)C2=O`, the values for the IC50 on Mushroom tyrosinase, with MNT-1 [2] and with MNT-1 [3] were 0.014 µM, 3.2 µM and 0.77 µM, respectively. Moreover, the CC50 turned out to be 29 µM with MNT-1 [4] and 78 µM in the assay with MNT-1 [5].
On Mushroom tyrosinase, `N#Cc1cccc2c1C/C(=C\c1ccc(O)cc1O)C2=O` had an IC50 of 0.26 µM.
The compound `COc1cccc2c1C/C(=C\c1ccc(O)cc1O)C2=O` yielded a 50% inhibitory concentration (IC50) at Mushroom tyrosinase of 0.16 µM.
Still for that read-out and setting: under `O=C1/C(=C/c2ccc(O)cc2O)Cc2c(F)cccc21` stands 0.15 µM.
`CCC(=O)Nc1cccc2c1C/C(=C\c1ccc(O)cc1O)C2=O`: the figures for the IC50 at Mushroom tyrosinase, with MNT-1 [2] and with MNT-1 [3] were 0.014 µM, 8 µM and 3.1 µM, respectively. Besides, the figures for the CC50 in the assay with MNT-1 [4] and with MNT-1 [5] were 65 µM and over 100 µM, respectively.
As to `O=C1/C(=C/c2ccc(O)cc2O)Cc2c1cccc2C(F)(F)F`, the IC50 was over 100 µM against Tyrosinase [1] and 0.18 µM at Mushroom tyrosinase.
As for `CC(=O)Nc1cccc2c1C/C(=C\c1ccc(O)cc1O)C2=O`, the values for the IC50 at Mushroom tyrosinase, in the assay with MNT-1 [2] and with MNT-1 [3] were 0.009 µM, 19 µM and 3.3 µM, respectively. In addition, the CC50 with MNT-1 [4] was 67 µM; in the assay with MNT-1 [5], over 100 µM.
On the same counts, the results for `Cc1cccc2c1C/C(=C\c1ccc(O)cc1O)C2=O` are 0.019 µM, 21 µM, 4.1 µM, 61 µM and over 100 µM.
On to `NCC(=O)Nc1cccc2c1C/C(=C\c1ccc(O)cc1O)C2=O`, for which the IC50 against Mushroom tyrosinase is 0.39 µM; with MNT-1 [2], 29 µM; with MNT-1 [3] it was 12 µM. Further, the CC50 with MNT-1 [4] and with MNT-1 [5] was over 100 µM in each case.
In the case of `CC(C)C(=O)Nc1cccc2c1C/C(=C\c1ccc(O)cc1O)C2=O`, the IC50 against Mushroom tyrosinase was found to be 0.06 µM; with MNT-1 [2], 7 µM; with MNT-1 [3], 2.1 µM. For the same compound, the CC50 in the assay with MNT-1 [4] was 62 µM; in the assay on MNT-1 [5] it was over 100 µM.
Take `CN(C)c1cccc2c1C/C(=C\c1ccc(O)cc1O)C2=O`: on Mushroom tyrosinase, the IC50 amounted to 0.083 µM.
For the compound `Oc1cccc(O)c1` [RESORCINOL], the IC50 at Tyrosinase [6] was over 3000 µM.

As usually defined, the IC50 is the concentration at which inhibition is half-maximal. A high value points to weaker potency in that assay. What is called CC50 is the concentration at which the toxic effect on the cells reaches its halfway point. Read a high CC50 as lower toxicity to the cells.

The values above are taken from ChEMBL document CHEMBL5505967, “Design and synthesis of 4-amino-2',4'-dihydroxyindanone derivatives as potent inhibitors of tyrosinase and melanin biosynthesis in human melanoma cells” (Eur J Med Chem, 2024).
